Experimental data taken from the supplement of paper PMC10307832.

How the values were obtained:
Experiment in all cases: relative viability (nuclei count vs DMSO), 5 days (fraction); higher = more cells survive
Bortezomib + Olaparib = compound: CC(C)C[C@H](NC(=O)[C@H](Cc1ccccc1)NC(=O)c1cnccn1)B(O)O [Bortezomib] + O=C(c1cc(Cc2n[nH]c(=O)c3ccccc23)ccc1F)N1CCN(C(=O)C2CC2)CC1 [Olaparib] (partner 8 µM)
Outline: (§1)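 Lung cancer cell lines were seeded in 1536-well plates and dosed by pin tool the next day, with either a single drug or a fixed anchor-drug dose combined with five library-drug doses (not always all listed) spaced in √10 steps. Five days later, one step fixed the cells and stained their nuclei (final 0.05% Triton X-100, 1% formaldehyde, 1 ug/ml Hoechst), and nuclei were counted on 4× images. Relative viability is the nuclei count in treated wells divided by the count in vehicle wells, and each value is the median of duplicate plates.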

[1] = compound: CC1=CC(=NN1)NC2=CC(=NC(=N2)/C=C/C3=CC=CC=C3)N4CCN(CC4)C + O=C(c1cc(Cc2n[nH]c(=O)c3ccccc23)ccc1F)N1CCN(C(=O)C2CC2)CC1 [Olaparib] (partner 8 µM)
Outline: as §1

Bortezomib + Pictilisib = compound: CC(C)C[C@H](NC(=O)[C@H](Cc1ccccc1)NC(=O)c1cnccn1)B(O)O [Bortezomib] + CS(=O)(=O)N1CCN(Cc2cc3nc(-c4cccc5[nH]ncc45)nc(N4CCOCC4)c3s2)CC1 [Pictilisib] (partner 1 µM)
Outline: as §1

Obatoclax + Tozasertib = compound: COC1=CC(c2cc3ccccc3[nH]2)=N/C1=C\c1[nH]c(C)cc1C [Obatoclax] + Cc1cc(Nc2cc(N3CCN(C)CC3)nc(Sc3ccc(NC(=O)C4CC4)cc3)n2)n[nH]1 [Tozasertib] (partner 0.1 µM)
Outline: as §1

Cell Line	relative viability (Bortezomib + Olaparib; first compound 0.0002 µM)	relative viability (Bortezomib + Olaparib; first compound 0.000632 µM)	relative viability (Bortezomib + Olaparib; first compound 0.002 µM)	relative viability (Bortezomib + Olaparib; first compound 0.006325 µM)	relative viability (Bortezomib + Olaparib; first compound 0.02 µM)	relative viability ([1]; first compound 0.08 µM)	relative viability ([1]; first compound 0.253 µM)	relative viability ([1]; first compound 0.8 µM)	relative viability ([1]; first compound 2.53 µM)	relative viability ([1]; first compound 8 µM)	relative viability (Bortezomib + Pictilisib; first compound 0.0002 µM)	relative viability (Bortezomib + Pictilisib; first compound 0.000632 µM)	relative viability (Bortezomib + Pictilisib; first compound 0.002 µM)	relative viability (Bortezomib + Pictilisib; first compound 0.006325 µM)	relative viability (Bortezomib + Pictilisib; first compound 0.02 µM)	relative viability (Obatoclax + Tozasertib; first compound 0.01 µM)	relative viability (Obatoclax + Tozasertib; first compound 0.03162 µM)	relative viability (Obatoclax + Tozasertib; first compound 0.1 µM)	relative viability (Obatoclax + Tozasertib; first compound 0.3162 µM)	relative viability (Obatoclax + Tozasertib; first compound 1 µM)
CAL-12T	0.625	0.675	0.62	0.282	0.199	0.714	0.741	0.714	0.238	0.237	0.155	0.368	0.427	0.211	0.151	0.389	0.326	0.36	0.153	0.0881
H3255	0.579	0.545	0.36	0.233	0.237	0.553	0.568	0.599	0.575	0.326	0.58	0.482	0.406	0.192	0.142	0.6	0.796	0.513	0.638	0.73
HCC-78	0.928	0.662	0.398	0.233	0.258	0.732	0.902	0.903	0.673	0.29	0.183	0.23	0.207	0.21	0.193	0.338	0.404	0.664	0.399	0.344
NCI-H2405	0.859	0.834	0.334	0.199	0.161	0.842	0.937	0.93	0.753	0.183	0.462		0.464	0.152	0.148	0.789	0.905		0.833	0.882
NCI-H3122	0.557	0.621	0.604	0.243	0.0898	0.568	0.722	0.654	0.62	0.474	0.547	0.654	0.688	0.62	0.167	0.389	0.361	0.382	0.373	0.391
HCC-44	0.942	0.986	0.99	0.715	0.315	0.974	1.01	0.956	0.965	0.759	0.581	0.575	0.554	0.464	0.133	0.907	1.03	0.556	0.376	0.196
PC-3 [JPC-3]	1.08	1.14	0.451	0.236	0.216	1.16	1.31	1.22	1.09	0.615	0.795	0.762	0.804	0.281	0.26	0.913	0.85	0.87	0.81	0.859
NCI-H1993	1.01	1.01	0.679	0.363	0.398	1.01	1.24	0.894	0.829	0.419	0.915	0.654	0.804	0.528	0.625	0.594	0.637	0.618	0.604	0.624
LOU-NH91	0.893	0.84	0.348	0.318	0.286	0.871	0.958	0.926	0.875	0.385	0.509	0.479	0.395	0.339	0.317	0.658	0.655	0.513	0.598	0.489
SK-MES-1	0.649	0.839	0.521	0.171	0.159	0.667	0.776	0.566	0.126	0.134	0.337	0.303	0.347	0.148	0.143	0.859	0.999	0.787	0.344	0.285
LCLC-103H	0.747	0.778	0.671	0.355	0.202	0.775	0.846	0.716	0.668	0.481	0.529	0.509	0.549	0.511	0.383	0.498	0.472	0.505	0.477	0.553
NCI-H1915	0.251	0.257	0.244	0.056	0.0357	0.256	0.255	0.262	0.223	0.126	0.808	0.941	1.14	0.685	0.144	0.401	0.405	0.424	0.382	0.414
NCI-H1734	0.555	0.661	0.443	0.115	0.0968	0.562	0.645	0.554	0.408	0.118	0.483	0.301	0.36	0.224	0.128	0.296	0.264	0.265	0.236	0.226
NCI-H2170	0.583	0.576	0.584	0.11	0.102	0.512	0.65	0.577	0.263	0.102	0.29	0.238	0.329	0.294	0.202	0.759	0.758	0.718	0.715	0.753
HCC-15	0.763	0.734	0.662	0.108	0.0913	0.748	0.611	0.718	0.298	0.113	0.649	0.745	0.733	0.396	0.111	0.371	0.35	0.463	0.456	0.287
SK-LU-1	0.477	0.442	0.462	0.198	0.149	0.405	0.515	0.423	0.273	0.125	0.521	0.528	0.503	0.166	0.14	0.346	0.354	0.342	0.184	0.154
